Measurements taken from US20040266811A1, “Methods for inducing regeneration, remyelination, and hypermyelination of nervous tissue” (priority 2002, published 2004).
Entries after “also recorded” stand apart in the source; their conditions may differ.

Tests used:
[1] = tested on: TrkA-overexpressing PC12 cells; assay: Schwann cell conditioned media on TrkA-overexpressing PC12 cells; assay type: cell-based; conditions: Schwann cells 1 μM GM-284 48 h; CM on PC12 72 h
Description: Wild-type and TrkA-overexpressing PC12 cells (Hempstead et al., Overexpression of the trk tyrosine kinase rapidly accelerates nerve growth factor-induced differentiation. Neuron, 9:883-96, 1992) were maintained in DMEM supplemented with 10% calf serum and 5% horse serum, the latter of which was also supplemented with 200 μg/ml G418 to maintain TrkA selection. Cultures were treated with 100 ng/ml NGF or the immunophilin ligands, or treated with Schwann-cell-conditioned medium supplemented with 5% horse serum, as indicated below. To generate GFP-expressing PC12 cells, a bicistronic pCX-bsr retroviral vector (Escalante et al., Phosphorylation of c-Crk II on the negative regulatory Tyr222 mediates nerve growth factor-induced cell spreading and morphogenesis. J. Biol. Chem., 275:24787-797, 2000), which drives expression of green fluorescent protein (GFP), was used to infect dividing PC12 cells.
To more directly examine the involvement of Schwann cells in mediating the neuritogenic capacities of GM-284, PC12 cells were infected with GFP-expressing retrovirus, and co-cultured on monolayers of Schwann cells, in the presence of either NGF, GM-284, or vehicle, for 48 h (FIG. 4B, panels a-c). […]

[2] = tested on: Erk phosphorylation in DRG neurons; assay: Erk phosphorylation immunoblot in DRGs; assay type: cell-based, mice; conditions: 1 μM GM-284, 30 min or 4 h
Description: (A) DRGs were prepared and cultured as above, except that either the MEK1 inhibitor, PD 098059, or NGF-neutralizing antibodies were included in cultures treated with either NGF or GM-284. Maximal response was determined to be the extent of neurite outgrowth when DRGs were cultured in NGF alone (spotted bars) or in 1 μM GM-284 (striped bars). As indicated, DRGs were treated with either NGF or GM-284, in the presence of either 0.25 mg/ml anti-NGF neutralizing antibodies or PD 098059. […] DRGs were treated with 100 ng/ml NGF or 1 μM GM-284, for 30 min or 4 h, as indicated, and the detergent lysates were prepared and immunoblotted with anti-phospho-Erk monoclonal antibody. The p42 and p44 bands are indicated by arrowheads.
293T cells were lysed in ice-cold HNTG buffer (20 mM HEPES, pH 7.5; 150 mM NaCl; 10% glycerol; and 1% Triton X-100) containing 0.1 mM sodium molybdate, 1 mM sodium vanadate, 1 mM phenylmethylsulfonyl fluoride (PMSF), and 10 μg/ml aprotinin. After 10 min at 4° C., cleared lysates were subjected to SDS-PAGE and Western blot analysis using standard protocols. Blots were incubated with the indicated primary antibodies and the appropriate […] secondary antibodies, followed by detection using enhanced chemiluminescence (ECL) reagent (Renaissance, NEN).

CCC(C)(C)C(=O)C(=O)N1CCC[C@H]1c1nnc([C@@H]2CCCN2C(=O)C(=O)C(C)(C)CC)o1 [GM-284]
neurite outgrowth induced by conditioned media from treated Schwann cells [1]: promoted significant neurite outgrowth; also recorded: Neurite promotion was observed only in the GM-284-treated Schwann cells' conditioned media
Erk phosphorylation in DRG [2]: no activity on Erk phosphorylation; also recorded: fails to activate the ERK pathway
